According to US9296734B2 (AMGEN INC., priority 2013, dated 2016):
Read-outs that look alike come from different tables or passages of the source.

Key:
[1] = target: Beta Secretase enzyme (BACE) (Homo sapiens (Human), UniProt P56817); assay: In vitro enzymatic BACE FRET assay; type: biochemical; details: read-out: BACE 1 FRET assay IC50
In short: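 A quenched fluorophore-peptide spanning the BACE cleavage site served as substrate at 50 nM, with one-hour incubation in pH 4.2 acetate buffer containing 100 uM genapol and 10% DMSO final. Fluorescence was measured after quenching with Tris to neutral pH.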

[2] = target: Cathepsin D (Cat D) (Homo sapiens (Human), UniProt P07339); assay: In vitro enzymatic Cathepsin D (Cat D) FRET assay; type: biochemical; details: read-out: CatD IC50
Cathepsin D (Cat D), sequence (P07339 65-412, species assumed): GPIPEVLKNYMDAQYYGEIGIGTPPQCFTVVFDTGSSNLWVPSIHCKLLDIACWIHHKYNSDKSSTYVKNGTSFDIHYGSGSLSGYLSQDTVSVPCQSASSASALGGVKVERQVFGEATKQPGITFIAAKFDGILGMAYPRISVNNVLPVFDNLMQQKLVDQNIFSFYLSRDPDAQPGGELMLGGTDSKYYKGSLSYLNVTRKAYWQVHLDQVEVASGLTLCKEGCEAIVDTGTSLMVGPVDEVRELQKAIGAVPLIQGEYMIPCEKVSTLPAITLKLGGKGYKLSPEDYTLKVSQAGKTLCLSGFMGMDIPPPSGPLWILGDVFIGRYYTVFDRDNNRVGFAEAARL
In short: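 CHO-expressed recombinant Cat D cleaves a fluorophore/quencher FRET peptide (20 nM) in 0.05 M citrate pH 3.5, 5 mM CHAPS, 10% DMSO final, over 1 h. Tris addition neutralizes pH to stop the reaction; fluorescence read at excitation 500 nm, emission 580 nm.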

[3] = test system: Aβ40 in conditioned medium of cells stably expressing Amyloid Precursor Protein (APP); assay: In vitro BACE cell-based assay (Aβ40 sandwich ELISA); details: Homo sapiens
In short: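 Aβ40 in supernatants was measured by time-resolved fluorescence sandwich ELISA using pAb40 capture and biotinylated 6E10 detection, with antibody incubations at 4 °C. Stable APP cells were exposed to compounds for 24 h in a 10-point series (top dose 100 or 10 µM, 0.1% DMSO). IC50 was fitted from the concentration-response.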

[4] = HEK293, average IC50, HEK cells, read-out: HEK cell assay IC50
[5] = HEK293, read-out: HEK cell assay IC50
[6] = average IC50, BACE enzyme assay
[7] = average IC50, cathepsin D enzyme assay
[8] = HEK293, average IC50, HEK cell assay, read-out: HEK cell assay IC50
[9] = HEK293, HEK cells, average, read-out: HEK cell assay IC50

Beta Secretase enzyme (BACE), sequence (P56817 46-501): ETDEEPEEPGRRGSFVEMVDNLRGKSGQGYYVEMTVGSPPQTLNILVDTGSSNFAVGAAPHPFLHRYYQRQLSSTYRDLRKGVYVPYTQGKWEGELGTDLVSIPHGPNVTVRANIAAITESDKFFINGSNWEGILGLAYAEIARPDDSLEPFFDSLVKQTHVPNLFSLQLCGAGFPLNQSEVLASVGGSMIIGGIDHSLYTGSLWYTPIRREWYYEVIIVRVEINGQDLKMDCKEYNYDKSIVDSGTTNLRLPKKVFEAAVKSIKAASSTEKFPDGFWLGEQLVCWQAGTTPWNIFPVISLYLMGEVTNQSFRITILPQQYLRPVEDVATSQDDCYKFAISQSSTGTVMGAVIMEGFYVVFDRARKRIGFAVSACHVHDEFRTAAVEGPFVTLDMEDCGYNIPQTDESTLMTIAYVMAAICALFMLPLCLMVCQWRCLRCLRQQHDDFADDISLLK

| Compound | IC50 ([1]; average IC50) | IC50 ([2]; average IC50) | IC50 [3, 4] | IC50 [1, 6] | IC50 [2, 7] | IC50 [3, 8] | also measured |
| --- | --- | --- | --- | --- | --- | --- | --- |
| Cc1cc(C#N)cnc1C(=O)Nc1cnc(F)c([C@]2(CF)C[C@@H](C(F)(F)F)OC(N)=N2)c1 [Example 140, N-(5-((4S,6S)-2-amino-4-(fluoromethyl)-6-(trifluoromethyl)-5,6-dihydro-4H-1,3-oxazin-4-yl)-6-fluoropyridin-3-yl)-5-cyano-3-methylpicolinamide] | 0.113 µM | > 400 µM | 0.338 µM | – | – | – | – |
| NC1=N[C@](CF)(c2cc(Oc3cnccn3)ccc2F)C[C@@H](C(F)(F)F)O1 [Example 92, (4S,6S)-4-(2-fluoro-5-(pyrazin-2-yloxy)phenyl)-4-(fluoromethyl)-6-(trifluoromethyl)-5,6-dihydro-4H-1,3-oxazin-2-amine] | 1.64 µM | > 400 µM | 1.65 µM | – | – | – | – |
| Cn1cc(NC(=O)c2ccc(Cl)cn2)cc([C@]2(C)C[C@@H](C(F)(F)F)OC(N)=N2)c1=O [Example 148, N-(5-((4S,6S)-2-amino-4-methyl-6-(trifluoromethyl)-5,6-dihydro-4H-1,3-oxazin-4-yl)-1-methyl-6-oxo-1,6-dihydropyridin-3-yl)-5-chloropicolinamide] | 0.366 µM | > 400 µM | – | – | – | – | IC50 [3, 5]: 0.0127 µM |
| COCc1cc(Cl)cnc1C(=O)Nc1cc(F)c(F)c([C@]2(C)C[C@@H](C(F)(F)F)OC(N)=N2)c1 [Example 199, N-(3-((4S,6S)-2-amino-4-methyl-6-(trifluoromethyl)-5,6-dihydro-4H-1,3-oxazin-4-yl)-4,5-difluorophenyl)-5-chloro-3-(methoxymethyl)picolinamide] | – | – | – | – | – | – | IC50 ([1]; average): 0.016 µM; IC50 ([2]; average): 1710 µM; IC50 [3, 9]: 0.013 µM |
| Cc1cc(Cl)cnc1C(=O)Nc1ccc(F)c([C@]2(CF)C[C@@H](C(F)(F)F)OC(N)=N2)c1 [Example 4, N-(3-((4S,6S)-2-amino-4-(fluoromethyl)-6-(trifluoromethyl)-5,6-dihydro-4H-1,3-oxazin-4-yl)-4-fluorophenyl)-5-chloro-3-methylpicolinamide] | 0.008 µM | > 400 µM | – | – | – | – | IC50 [3, 5]: 0.031 µM |
| CC#CCOc1ccc(C(=O)Nc2cc(F)c(F)c([C@]3(C)C[C@@H](C(F)(F)F)OC(N)=N3)c2)nc1 [Example 189, N-(3-((4S,6S)-2-amino-4-methyl-6-(trifluoromethyl)-5,6-dihydro-4H-1,3-oxazin-4-yl)-4,5-difluorophenyl)-5-(but-2-yn-1-yloxy)picolinamide] | – | – | – | – | – | – | IC50 ([1]; average): 0.003 µM; IC50 ([2]; average): 784 µM; IC50 [3, 9]: 0.003 µM |
| NC1=N[C@](CF)(c2cc(NC(=O)c3ccc(OCC(F)(F)F)cn3)ccc2F)C[C@@H](C(F)(F)F)O1 [Example 5, N-(3-((4S,6S)-2-amino-4-(fluoromethyl)-6-(trifluoromethyl)-5,6-dihydro-4H-1,3-oxazin-4-yl)-4-fluorophenyl)-5-(2,2,2-trifluoroethoxy)picolinamide] | 0.043 µM | > 400 µM | 0.263 µM | – | – | – | – |
| C[C@@]1(c2cc(Nc3ncc(F)c4cc(C#N)cnc34)cc(F)c2F)C[C@@H](C(F)(F)F)OC(N)=N1 [Example 177, 8-((3-((4S,6S)-2-amino-4-methyl-6-(trifluoromethyl)-5,6-dihydro-4H-1,3-oxazin-4-yl)-4,5-difluorophenyl)amino)-5-fluoro-1,7-naphthyridine-3-carbonitrile] | – | – | – | 0.03 µM | > 4.94 µM | 0.275 µM | – |
| NC1=N[C@](CF)(c2cc(Nc3nccc4cc(Cl)cnc34)cc(F)c2F)C[C@@H](C(F)(F)F)O1 [Example 161, (4S,6S)-4-(5-((3-chloro-1,7-naphthyridin-8-yl)amino)-2,3-difluorophenyl)-4-(fluoromethyl)-6-(trifluoromethyl)-5,6-dihydro-4H-1,3-oxazin-2-amine] | – | – | – | 0.023 µM | > 400 µM | 0.535 µM | – |
| COc1ccc(C(=O)Nc2cnc(F)c([C@]3(CF)C[C@@H](C(F)(F)F)OC(N)=N3)c2)nc1 [Example 142, N-(5-((4S,6S)-2-amino-4-(fluoromethyl)-6-(trifluoromethyl)-5,6-dihydro-4H-1,3-oxazin-4-yl)-6-fluoropyridin-3-yl)-5-methoxypicolinamide] | 0.114 µM | 5520 µM | 0.587 µM | – | – | – | – |
| NC1=N[C@](CF)(c2cc(Oc3cc(Br)cc(Cl)n3)ccc2F)C[C@@H](C(F)(F)F)O1 [Example 98] | 1.95 µM | > 400 µM | 2.9 µM | – | – | – | – |
| COc1ccc(C(=O)Nc2cc(F)c(F)c([C@]3(CF)C[C@@H](C(F)(F)F)OC(N)=N3)c2)nc1 [Example 156, N-(3-((4S,6S)-2-amino-4-(fluoromethyl)-6-(trifluoromethyl)-5,6-dihydro-4H-1,3-oxazin-4-yl)-4,5-difluorophenyl)-5-methoxypicolinamide] | – | – | – | 0.062 µM | > 400 µM | 0.123 µM | – |
| Cc1cc(Nc2ncnc3cc(Cl)cnc23)cc([C@]2(CF)C[C@@H](C(F)(F)F)OC(N)=N2)c1F [Example 230, (4S,6S)-4-(5-((7-chloropyrido[3,2-d]pyrimidin-4-yl)amino)-2-fluoro-3-methylphenyl)-4-(fluoromethyl)-6-(trifluoromethyl)-5,6-dihydro-4H-1,3-oxazin-2-amine] | – | – | – | – | – | – | IC50 ([1]; average): 0.049 µM; IC50 ([2]; average): > 400 µM; IC50 [3, 9]: 0.057 µM |
| C[C@@]1(c2nc(NC(=O)c3nn(C(F)F)cc3Cl)ccc2F)C[C@@H](C(F)(F)F)OC(N)=N1 [Example 88, N-(6-((4S,6S)-2-amino-4-methyl-6-(trifluoromethyl)-5,6-dihydro-4H-1,3-oxazin-4-yl)-5-fluoropyridin-2-yl)-4-chloro-1-(difluoromethyl)-1H-pyrazole-3-carboxamide] | – | – | – | 0.032 µM | 712 µM | 0.01 µM | – |
| NC1=N[C@](CF)(c2cccc(Nc3nccc4cc(Cl)cnc34)c2)C[C@@H](C(F)(F)F)O1 [Example 146, (4S,6S)-4-(3-((3-chloro-1,7-naphthyridin-8-yl)amino)phenyl)-4-(fluoromethyl)-6-(trifluoromethyl)-5,6-dihydro-4H-1,3-oxazin-2-amine] | 0.067 µM | 733 µM | 0.119 µM | – | – | – | – |

Now from value to compound, other results behind:

| IC50 ([1]; average IC50) | IC50 ([2]; average IC50) | IC50 [3, 4] | IC50 [1, 6] | IC50 [2, 7] | IC50 [3, 8] | Compound | also measured |
| --- | --- | --- | --- | --- | --- | --- | --- |
| – | – | – | 0.574 µM | 879 µM | 0.758 µM | NC1=N[C@](CF)(c2cc(Nc3ncccc3F)ccc2F)C[C@@H](C(F)(F)F)O1 [Example 14, (4S,6S)-4-(2-fluoro-5-((3-fluoropyridin-2-yl)-amino)phenyl)-4-(fluoromethyl)-6-(trifluoromethyl)-5,6-dihydro-4H-1,3-oxazin-2-amine] | – |
| – | – | – | 0.019 µM | 394 µM | 0.019 µM | C[C@@]1(c2cc(NC(=O)c3ncc(Cl)cc3Cl)cc(F)c2F)C[C@@H](C(F)(F)F)OC(N)=N1 [Example 172, N-(3-((4S,6S)-2-amino-4-methyl-6-(trifluoromethyl)-5,6-dihydro-4H-1,3-oxazin-4-yl)-4,5-difluorophenyl)-3,5-dichloropicolinamide] | – |
| – | – | – | > 40 µM | > 133 µM | > 15.6 µM | NC1=N[C@](CF)(c2cc(-c3ccc4ccc(F)cc4n3)ccc2F)C[C@@H](C(F)(F)F)O1 [Example 117, (4S,6S)-4-(2-fluoro-5-(7-fluoroquinolin-2-yl)phenyl)-4-(fluoromethyl)-6-(trifluoromethyl)-5,6-dihydro-4H-1,3-oxazin-2-amine] | – |
| – | – | – | > 40 µM | > 133 µM | > 15.6 µM | NC1=N[C@](CF)(c2cc(-c3ccc4cc(F)ccc4n3)ccc2F)C[C@@H](C(F)(F)F)O1 [Example 116, (4S,6S)-4-(2-fluoro-5-(6-fluoroquinolin-2-yl)phenyl)-4-(fluoromethyl)-6-(trifluoromethyl)-5,6-dihydro-4H-1,3-oxazin-2-amine] | – |
| 0.249 µM | 1420 µM | 0.119 µM | – | – | – | COc1ncc(NC(=O)c2ccc(Cl)cn2)cc1[C@]1(C)C[C@@H](C(F)(F)F)OC(N)=N1 [Example 147, N-(5-((4S,6S)-2-amino-4-methyl-6-(trifluoromethyl)-5,6-dihydro-4H-1,3-oxazin-4-yl)-6-methoxypyridin-3-yl)-5-chloropicolinamide] | – |
| – | – | – | 0.021 µM | 104 µM | 0.102 µM | C[C@@]1(c2cc(Nc3nccc4cc(Cl)cnc34)cc(F)c2F)C[C@@H](C(F)(F)F)OC(N)=N1 [Example 176, (4S,6S)-4-(5-((3-chloro-1,7-naphthyridin-8-yl)amino)-2,3-difluorophenyl)-4-methyl-6-(trifluoromethyl)-5,6-dihydro-4H-1,3-oxazin-2-amine] | – |
| 0.088 µM | > 400 µM | 0.0376 µM | – | – | – | C[C@@]1(c2cc(Nc3ncnc4cc(Cl)cnc34)cnc2F)C[C@@H](C(F)(F)F)OC(N)=N1 [Example 74, (4S,6S)-4-(5-((7-chloropyrido[3,2-d]pyrimidin-4-yl)amino)-2-fluoropyridin-3-yl)-4-methyl-6-(trifluoromethyl)-5,6-dihydro-4H-1,3-oxazin-2-amine] | – |
| – | – | – | 26.8 µM | 162 µM | 2.88 µM | C[C@@]1(c2cc(Nc3nc4cc(Cl)ccc4o3)ccc2F)C[C@@H](C(F)(F)F)OC(N)=N1 [Example 30, N-(3-((4S,6S)-2-amino-4-methyl-6-(trifluoromethyl)-5,6-dihydro-4H-1,3-oxazin-4-yl)-4-fluorophenyl)-5-chlorobenzo[d]oxazol-2-amine] | – |
